Measurements published in patent US20180282679A1, “CELL CULTURE APPARATUS” (The Ritsumeikan Trust, priority 2015, published 2018).

Legend:
caco-2 cells [1] = experiment: Evaluation Test 2: perfusion of fluorescent dyes through the tubular-form culture substrate, absorption into cultured cells; assay type: in vitro ADME; conditions: HBSS, flow rate 0.05 mL min^-1 for 1 hour; calcein 100 μmol L^-1, Texas Red 10 μmol L^-1
Method: Specifically, caco-2 cells imitating intestinal epithelium were cultured on a culture substrate. Caco-2 cells produced by DS pharma biomedical Co., Ltd. were used. The caco-2 cells were cultured in DMEM (Dulbecco-modified eagle's medium) to which 10% heat inactivated fetal bovine serum, penicillin G (100 U mL^−1), streptomycin (100 μg mL^−1), and 1% non-essential amino acid were added, under an environment at 37° C., 5% CO2), and 95% air. The caco-2 cells were dissociated in EDTA and 0.05% trypsin and passaged, and then the cells were seeded on collagen that forms a culture substrate on an upper surface of a balloon actuator. The caco-2 cells reached confluence in 7 days. The culture medium was replaced every 24 hours. […]
The culture substrate in the tubular form was perfused with HBSS (Hanks' Balanced Salt Solution) containing fluorescent dyes, as a liquid corresponding to a drug solution, at a flow rate of 0.05 mL min^−1 for 1 hour. […] Thereafter, bright field images and fluorescence images of the caco-2 cells at a bottom part and an upper part of the culture substrate in the tubular form were observed.
FIGS. 16A, 16B, 16C, 16D, 16E and 16G show microscope images of the caco-2 cells. […] FIGS. 16C and 16D show images obtained by imaging fluorescence signals from calcein at the bottom part and the upper part of the culture substrate in the tubular form, respectively. […]

caco-2 cells [2] = experiment: Evaluation Test 3: absorption of dyes in tubular-form culture substrates having different inner diameters; assay type: in vitro ADME; conditions: inner diameter 0.5, 1.0 and 2.0 mm; flow rate 0.05 mL/min, perfused for 3 minutes
Source text: The inventors of the present application studied dynamic characteristics of a fluid and absorption of a drug into a culture substrate in a tubular form when a liquid such as a drug solution was caused to flow in the culture substrate. Specifically, a fluid containing a drug was caused to flow in a plurality of types of tubular-form culture substrates having different inner diameters, and the states of the culture substrates before and after the flow of the fluid were observed. In addition, dynamic characteristics of the fluid in the respective tubular-form culture substrates were obtained by calculation.
where Q is the flow rate of the liquid, μ is the viscosity of the liquid, ρ is the density of the liquid, L is the length of the tube, and r is the radius of the tube. The flow rate Q of the liquid is 0.05 mL/min, and the liquid was perfused for 3 minutes.
FIGS. 19A, 19B and 19C show images obtained by causing a fluid containing Texas Red as a model of a lipophilic drug to flow in three types of tubular-form culture substrates having different diameters, and imaging fluorescence signals from the Texas Red. […]
FIGS. 20A, 20B and 20C show images obtained by causing a fluid containing calcein as a model of a hydrophilic drug to flow in three types of tubular-form culture substrates having different inner diameters, and imaging fluorescence signals from the calcein.

Compound | absorption in the caco-2 cells (fluorescence images at bottom part and upper part of the tubular culture substrate) (caco-2 cells [1]) | speed of absorption depending on inner diameter of the tubular-form culture substrate (fluorescence images) (caco-2 cells [2])
Texas Red | uniformly absorbed in the caco-2 cells | the smaller the inner diameter of the tube is, the faster the lipophilic drug is absorbed
O=C(O)CN(CC(=O)O)Cc1cc2c(cc1O)Oc1cc(O)c(CN(CC(=O)O)CC(=O)O)cc1C21OC(=O)c2ccccc21 [calcein] | uniformly absorbed in the caco-2 cells | substantially no difference was observed in the speed of absorbing the hydrophilic drug
